1 compound from patent publication EP2745708A1, “Antidepressant effect of ß-hydroxy-ß-methylbutyrate” (Abbott Laboratories, Inc., priority 2012, dated 2014) can be followed below.

This assay has as its system rats. The assay is described as follows: Forced swimming test (FST) in rats. The following applies: forced swim test, oral 250 mg/kg or 500 mg/kg body weight after pre-swim and four hours and one hour prior to 5 minute test swim, two independent experiments. Format: in vivo. Here is the method: The antidepressant effect of HMB was evaluated using the forced swimming test (FST) using the procedure described by Porsolt et al. (Eur. J. Pharmacol. 47(4). 379-91 (1978)). To begin the experiment, rats were individually placed inside vertical cylinders (height 40 cm; diameter 21.5 cm) containing 30 cm of water at 35 °C for 15 minutes (i.e., "pre-swim). Following this pre-swim period, the rats were removed and allowed to dry in a heated enclosure before returning to their cages. The rats were then orally administered a dose of either 250 mg/kg body weight or 500 mg/kg body weight HMB.
Twenty-four hours later, rats were submitted to the test swim, in which the rats were again placed in the cylinder for 5 minutes. Test swims were videotaped and subsequently assessed for latency to immobility, which is the point at which no movements were observed and the rat was in the "deadman" position (i.e., head up, tail down, front legs slightly hunched, and rear legs pointed downwards). Rats were orally administered their respective doses of either 250 mg/kg body weight or 500 mg/kg body weight of HMB four hours and one hours prior to the swim test.

On to `CC(C)(O)CC(=O)O` [HMB, 3-hydroxy-3-methylbutanoic acid], for which the latency to immobility result is reported as “significantly increased”.
